Consider eleven compounds from ChEMBL document CHEMBL3046468, “Synthesis, characterization and in vitro hydrolysis studies of ester and amide prodrugs of dexibuprofen” (Med Chem Res, 2012).

The nature of data set [1]: Solubility of the compound in DMF. The format is physicochemical.
Data set [2] in a line: Solubility of the compound in ethanol. Type of data set: physicochemical.
Data set [3] can be described thus: Solubility of the compound in ethyl acetate. Type of data set: physicochemical.
Data set [4] in a line: Solubility of the compound in 0.1 N HCl. The format is physicochemical. The following applies: buffer.
Data set [5] in a line: Solubility of the compound in 0.1 N NaOH. The format is physicochemical.
Data set [6] is described as follows: Solubility of the compound in chloroform. The format is physicochemical.
The nature of data set [7]: Solubility of the compound in ethanol at 5 mg. Type of data set: physicochemical.
The nature of data set [8]: Protein binding to 6% egg albumin at 20 ug/ml. To be noted: read-out: PPB (converted).
The nature of data set [9]: Solubility of the compound in DMF at 5 mg. Type of data set: physicochemical.
Data set [10] in a line: Solubility of the compound in ethyl acetate at 5 mg. Type of data set: physicochemical.
Data set [11] is described as follows: Solubility of the compound in 0.1 N HCl at 5 mg. The format is physicochemical. To be noted: buffer.
The nature of data set [12]: Half life in 80% Homo sapiens (human) plasma at pH 7.4 at 10 mg. The following applies: 80% human plasma. The format is ADME, cell-free.
Data set [13] in a line: Half life in PBS at pH 7.4 by spectrophotometric analysis. The format is ADME.
Data set [14] is described as follows: Prodrug activation in simulated gastric fluid assessed as dexibuprofen regeneration rate at 10 mg by HPLC analysis. To be noted: in vitro.
Data set [15] in a line: Solubility of the compound in chloroform at 5 mg. Type of data set: physicochemical.
Data set [16] in a line: Solubility of the compound in 0.1 N NaOH at 5 mg. The format is physicochemical.

For `CC(C)Cc1ccc([C@H](C)C(=O)O)cc1` [DEXIBUPROFEN], the solubility result is on record as “soluble” in data set [1]; “soluble” in [2]; “soluble” in data set [3]; “Insoluble” in data set [4]; “soluble” in data set [5]; “soluble” in data set [6].
`COC(=O)C(CC(C)C)NC(=O)C(C)c1ccc(CC(C)C)cc1` (stereo unspecified): the solubility result in data set [7] is given as “soluble”; in [9] it was “soluble”; in data set [10] it was “soluble”; in data set [11], “Insoluble”; in [15], “soluble”; in [16], “soluble”. Besides, in data set [8], the fraction unbound at 20 ug/ml was 0.49. The half-life (in general, how long it takes for the measured level to halve) in data set [12] came out at 0.883 h; in data set [13], 3.16 h. In addition, in data set [14], the Drug metabolism entry was “Not Active”.
Regarding `COC(=O)C(C)NC(=O)C(C)c1ccc(CC(C)C)cc1` (stereo unspecified), the solubility result is “soluble” in [7]; “soluble” in data set [9]; “soluble” in data set [10]; “Insoluble” in [11]; “soluble” in [15]; “soluble” in data set [16]. In addition, the fraction unbound at 20 ug/ml in data set [8] was 0.64. Also, the half-life was 0.883 h in data set [12] and 2.58 h in data set [13]. Also, the Drug metabolism result in data set [14] is on record as “Not Active”.
In the case of `COC(=O)CNC(=O)C(C)c1ccc(CC(C)C)cc1` (stereo unspecified), the solubility entry in data set [7] was “soluble”; in data set [9], “soluble”; in data set [10], “soluble”; in data set [11], “Insoluble”; in data set [15] it was “soluble”; in data set [16], “soluble”. For the same compound, in [8], the fraction unbound at 20 ug/ml is 0.76. For the same compound, the half-life in data set [12] was found to be 0.883 h; in [13], 2.58 h. In addition, the Drug metabolism result in data set [14] is reported as “Not Active”.
As to `CC(C)Cc1ccc(C(C)C(=O)OCc2ccccc2)cc1` (stereo unspecified), the solubility result was “soluble” in [7]; “soluble” in [9]; “soluble” in data set [10]; “Insoluble” in [11]; “soluble” in data set [15]; “soluble” in data set [16]. The fraction unbound at 20 ug/ml in [8] was 0.63. The figures for the half-life in data set [12] and in data set [13] were 0.65 h and 2.1 h, respectively. For the same compound, the Drug metabolism result in [14] is “Not Active”.
Take `COC(=O)C(NC(=O)C(C)c1ccc(CC(C)C)cc1)C(C)C` (stereo unspecified): the solubility result in data set [7] is “soluble”; in data set [9], “soluble”; in [10], “soluble”; in [11], “Insoluble”; in data set [15], “soluble”; in data set [16], “soluble”. Moreover, the fraction unbound at 20 ug/ml in [8] is 0.55. For the same compound, the values for the half-life in data set [12] and in [13] were 0.883 h and 3.3 h, respectively. The Drug metabolism result in data set [14] was “Not Active”.
For `CCCCOC(=O)C(C)c1ccc(CC(C)C)cc1` (stereo unspecified), the solubility result in data set [7] is given as “soluble”; in data set [9], “soluble”; in data set [10], “soluble”; in data set [11], “Insoluble”; in data set [15] it was “soluble”; in data set [16], “soluble”. Besides, in data set [8], the fraction unbound at 20 ug/ml is 0.65. The half-life in [12] was found to be 0.483 h; in data set [13], 2.1 h. In data set [14], the Drug metabolism result was “Not Active”.
In the case of `CCC(C)OC(=O)C(C)c1ccc(CC(C)C)cc1` (stereo unspecified), the solubility result in [7] is recorded as “soluble”; in data set [9], “soluble”; in data set [10] it was “soluble”; in [11] it was “Insoluble”; in data set [15] it was “soluble”; in data set [16], “soluble”. Besides, the fraction unbound at 20 ug/ml in [8] was 0.33. Besides, the half-life was found to be 0.65 h in [12] and 2.1 h in [13]. Besides, the Drug metabolism result in data set [14] is “Not Active”.
Consider `CC(C)Cc1ccc(C(C)C(=O)OC(C)C)cc1` (stereo unspecified), for which the solubility result in data set [7] is given as “soluble”; in data set [9], “soluble”; in data set [10], “soluble”; in data set [11] it was “Insoluble”; in data set [15], “soluble”; in data set [16] it was “soluble”. Moreover, in [8], the fraction unbound at 20 ug/ml is 0.35. The half-life in data set [12] was 0.65 h; in [13], 2.1 h. Further, in data set [14], the Drug metabolism result was “Not Active”.
`CC(C)Cc1ccc(C(C)C(=O)OCC(O)CO)cc1` (stereo unspecified): the solubility entry in data set [7] is recorded as “soluble”; in data set [9] it was “soluble”; in data set [10] it was “soluble”; in [11], “Insoluble”; in [15], “soluble”; in data set [16], “soluble”. Besides, the fraction unbound at 20 ug/ml in data set [8] is 0.77. For the same compound, the half-life in data set [12] is 0.483 h; in data set [13] it was 2.1 h. For the same compound, in data set [14], the Drug metabolism result was “Not Active”.
Consider `COC(=O)C(Cc1ccccc1)NC(=O)C(C)c1ccc(CC(C)C)cc1` (stereo unspecified), for which the solubility result in data set [7] is on record as “soluble”; in data set [9], “soluble”; in data set [10] it was “soluble”; in data set [11], “Insoluble”; in [15], “soluble”; in [16], “soluble”. Besides, the fraction unbound at 20 ug/ml in data set [8] was 0.53. In addition, the half-life in [12] amounted to 0.883 h; in data set [13], 2.97 h. The Drug metabolism entry in data set [14] is “Not Active”.
